Measured values: US4058601A, “Method for treating alcoholism” (Chugai Seiyaku Kabushiki Kaisha, priority 1974, dated 1977)
Several values for one entry are separate records, joined by “and”; a condition that tells them apart may be missing. Identical values can stand only once. Entries after “also recorded” stand apart in the source; their conditions may differ.

How the values were obtained:
Neutral Lipid in Liver = test: Inhibiting action for accumulation of neutral lipid in liver (ethanol-loaded rats); type: in vivo, Sprague Dawley strain male rats
Description: Inhibiting Action for Accumulation of Neutral Lipid in Liver
The Sprague Dawley strain male rats weighing 180±30 g which had been fed rat food commercially available as CLEA CE-2 and prevented from eating food for 16 hours just before the experiment was started were divided into groups of 10 rats each. Each rat was orally administered with disodium uridine-5'-diphosphate (UDP-2Na) as a suspension in corn oil in a dose of 100 mg/kg body weight. Thirty minutes after the administration, each rat was orally administered with ethanol as a 50% aqueous solution in a dose of 6 g/kg. body weight and, 24 hours after the administration, the liver was taken out and an amount of neutral lipid contained therein was determined by the Van Handel and Zilver-Smit method. For control, a glucose aqueous solution having a caloric content equivalent to the same amount of ethanol was used instead of ethanol.

[1] = test system: rat (behaviour after ethanol); test: Behaviour and righting reflex of rats, UDP-2Na given 30 min before ethanol (Example 2); type: in vivo, Sprague Dawley strain male rats; settings: UDP-2Na 100 mg/kg p.o. 30 min before ethanol 6 g/kg
Description: The Sprague Dawley strain male rats weighing 260±30 g which had been fed rat food commercially available as CLEA CE-2 and prevented from eating food for 12 hours just before the experiment were divided into groups each of 10 - 13 members each. Each rat was orally administered disodium uridine-5'-diphosphate (UDP-2Na) in the form of a suspension in corn oil in an amount 100 mg/kg body weight. Thirty minutes after the administration, ethanol as a 50% aqueous solution was orally administered in a dose of 6 g/kg. body weight and then behavior of the rat was observed over 24 hours.

[2] = test system: rat (behaviour after ethanol); test: Behaviour and righting reflex of rats, UDP-2Na given 30 min after ethanol (Example 3); type: in vivo, Sprague Dawley strain male rats; settings: UDP-2Na 100 mg/kg p.o. 30 min after ethanol 6 g/kg
Description: The Sprague Dawley strain male rats weighing 160±30 g which were fed rat food commercially available as CLEA CE-2 and prevented from eating food for 12 hours just before the experiment was started. Each rat was administered with ethanol as a 50% aqueous solution in a dose of 6 g/kg body weight. Thirty minutes after the administration, the rat was orally administered with a suspension of disodium uridine-5'-diphosphate (UDP-2Na) in corn oil in a dose of 100 mg/kg. body weight based on UDP-2Na. The behavior of the rat was observed over 24 hours after the last administration.

[3] = Measurement of alcohol level in blood (alcoholic dehydrogenase method); type: in vivo, Sprague Dawley strain female rats
Description: Measurement of Alcohol Level in Blood
(§1) In this Example, Sprague Dawley strain female rats (weighing 150±20 g) divided into groups of 9 - 12 members each were used.
(§2) After abstention from food overnight each rat was orally administered disodium uridine-5'-diphosphate (UDP-2Na) in the form of a physiological saline solution in a dose of 100 mg/kg. body weight as an effective ingredient and, 30 minutes after the administration, the rat was administered with ethanol in a dose of 6 g/kg body weight. Four hours and thirty minutes after the administration of ethanol, the rat was etherized, and blood was sampled from its heart to determine alcohol level in the blood by a alcoholic dehydrogenase method. For control, a physiological saline solution was used instead of the UDP-2Na solution.

[4] = test system: rat (behavior after ethanol); test: Behavior of rats in the blood alcohol experiment (Example 4); type: in vivo, Sprague Dawley strain female rats; settings: UDP-2Na 100 mg/kg p.o. 30 min before ethanol 6 g/kg; ditto mark (") = normal walking
Description: as §1, §2

Compound: O=c1ccn([C@@H]2O[C@H](COP(=O)([O-])OP(=O)([O-])O)[C@@H](O)[C@H]2O)c(=O)[nH]1.[Na+].[Na+] [UDP . 2Na, disodium uridine-5'-diphosphate]
- % inhibition (neutral lipid accumulation in liver) (Neutral Lipid in Liver; UDP-2Na 100 mg/kg p.o. 30 min before ethanol 6 g/kg p.o., 24 h): 95.7%
- Neutral Lipid in Liver (Neutral Lipid in Liver; UDP-2Na 100 mg/kg p.o. in corn oil 30 min before ethanol 6 g/kg p.o., liver taken 24 h after): 12.69 ± 7.85 mg/g
- Behaviour: Deep Sleep ([1]; 3 hrs after alcohol): 1 heads
- Behaviour: Lying Flat ([1]; 3 hrs after alcohol): 5 heads
- Behaviour: Normal Walking ([1]; 3 hrs after alcohol): 7 heads
- Righting Reflex + ([1]; 3 hrs after alcohol): 12 heads
- Righting Reflex - ([1]; 3 hrs after alcohol): 1 heads
- Behaviour: Deep Sleep ([1]; 6 hrs after alcohol): 1 heads
- Behaviour: Lying Flat ([1]; 6 hrs after alcohol): 8 heads
- Behaviour: Normal Walking ([1]; 6 hrs after alcohol): 4 heads
- Righting Reflex + ([1]; 6 hrs after alcohol): 12 heads
- Righting Reflex - ([1]; 6 hrs after alcohol): 1 heads
- Behaviour: Deep Sleep ([1]; 9 hrs after alcohol): 0 heads
- Behaviour: Lying Flat ([1]; 9 hrs after alcohol): 7 heads
- Behaviour: Normal Walking ([1]; 9 hrs after alcohol): 6 heads
- Righting Reflex + ([1]; 9 hrs after alcohol): 13 heads
- Righting Reflex - ([1]; 9 hrs after alcohol): 0 heads
- Behaviour: Deep Sleep ([1]; 12 hrs after alcohol): 0 heads
- Behaviour: Lying Flat ([1]; 12 hrs after alcohol): 0 heads
- Behaviour: Normal Walking ([1]; 12 hrs after alcohol): 13 heads
- Righting Reflex + ([1]; 12 hrs after alcohol): 13 heads
- Righting Reflex - ([1]; 12 hrs after alcohol): 0 heads
- Behaviour: Deep Sleep ([1]; 18 hrs after alcohol): 0 heads
- Behaviour: Lying Flat ([1]; 18 hrs after alcohol): 0 heads
- Behaviour: Normal Walking ([1]; 18 hrs after alcohol): 13 heads
- Righting Reflex + ([1]; 18 hrs after alcohol): 13 heads
- Righting Reflex - ([1]; 18 hrs after alcohol): 0 heads
- Behaviour: Deep Sleep ([2]; 3 hrs after alcohol): 1 heads
- Behaviour: Lying Flat ([2]; 3 hrs after alcohol): 6 heads
- Behaviour: Normal Walking ([2]; 3 hrs after alcohol): 4 heads
- Righting Reflex + ([2]; 3 hrs after alcohol): 10 heads
- Righting Reflex - ([2]; 3 hrs after alcohol): 1 heads
- Behaviour: Deep Sleep ([2]; 6 hrs after alcohol): 1 heads
- Behaviour: Lying Flat ([2]; 6 hrs after alcohol): 7 heads
- Behaviour: Normal Walking ([2]; 6 hrs after alcohol): 3 heads
- Righting Reflex + ([2]; 6 hrs after alcohol): 9 heads
- Righting Reflex - ([2]; 6 hrs after alcohol): 2 heads
- Behaviour: Deep Sleep ([2]; 9 hrs after alcohol): 1 heads
- Behaviour: Lying Flat ([2]; 9 hrs after alcohol): 6 heads
- Behaviour: Normal Walking ([2]; 9 hrs after alcohol): 4 heads
- Righting Reflex + ([2]; 9 hrs after alcohol): 10 heads
- Righting Reflex - ([2]; 9 hrs after alcohol): 1 heads
- Behaviour: Deep Sleep ([2]; 12 hrs after alcohol): 0 heads
- Behaviour: Lying Flat ([2]; 12 hrs after alcohol): 1 heads
- Behaviour: Normal Walking ([2]; 12 hrs after alcohol): 10 heads
- Righting Reflex + ([2]; 12 hrs after alcohol): 11 heads
- Righting Reflex - ([2]; 12 hrs after alcohol): 0 heads
- Behaviour: Deep Sleep ([2]; 18 hrs after alcohol): 0 heads
- Behaviour: Lying Flat ([2]; 18 hrs after alcohol): 0 heads
- Behaviour: Normal Walking ([2]; 18 hrs after alcohol): 11 heads
- Righting Reflex + ([2]; 18 hrs after alcohol): 11 heads
- Righting Reflex - ([2]; 18 hrs after alcohol): 0 heads
- Ethanol level in Blood, Average ([3]; UDP-2Na 100 mg/kg p.o. in saline 30 min before ethanol 6 g/kg, 4 h 30 min after ethanol, *Confidence Limits: 98%): 1.51 ± 1.09 mg/mL
- Ethanol level in Blood (individual test animals No. 1-12) ([3]; UDP-2Na 100 mg/kg p.o. in saline 30 min before ethanol 6 g/kg, blood 4 h 30 min after ethanol): 2.11 mg/mL and 1.77 mg/mL and 0.57 mg/mL and 0.24 mg/mL and 0.75 mg/mL and 2.10 mg/mL and 1.08 mg/mL and 1.35 mg/mL and 1.72 mg/mL and 1.50 mg/mL and 2.16 mg/mL and 2.74 mg/mL
- alcohol level in blood in comparison with the control ([3]; UDP-2Na 100 mg/kg p.o., result in words): significantly lowered
- Behavior (individual test animals No. 1-12) [4]: normal walking; also recorded: lying flat; also recorded: deep sleep
